Entries after “also recorded” stand apart in the source; their conditions may differ. Where no end group is shown, it is not given here.
Key:
Gal-9 = assay: Glycopeptide microarray lectin binding assay, Gal-9; design: species or system human; settings: compounds immobilised at 20 and/or 200 μM; Gal-9 0.10-32.0 µg/mL, PBS pH 7.4, no reducing agent
Method: (§1) Following our reported optimized protocol, the binding profile of lectins were investigated using evanescent-field fluorescence-assisted microarray technology to directly monitor the interaction without the wash and dry-up process and rapid exchange of protein solution to evaluate concentration dependence, 0.10–32.0 µg/mL protein. The AO/PC-copolymer microarray slides were deprotected using 2N HCl treatment overnight at rt, rinsed with MilliQ H2O, and dried by centrifugation. […]
(§2) A silicon rubber sheet with six chambers was attached to the printed slide. […] After 1 h of incubation with the lectin solution at rt in a humidified chamber, the slide was rinsed with washing buffer (reaction buffer with containing 0.05% (v/v) Tween-20) and fluorescence intensity was measured with GlycoStation System. To determine whether additional interactions will be detected at higher lectin concentrations, the reaction buffer solution was carefully removed and replaced with the next lectin test concentration, incubated for 5 min at rt, washed with reaction buffer and then fluorescence intensity was obtained. […]
(§3) Images of slides were captured in the presence of reaction buffer. The fluorescexcelence intensities obtained were analyzed using ArrayVision 8.0 (GE Healthcare). […]

Gal-1 [1] = assay: Glycopeptide microarray lectin binding assay, Gal-1; design: species or system human; settings: compounds immobilised at 20 and/or 200 μM, quadruplets; labelled Gal-1 0.10-32.0 µg/mL, PBS pH 7.4, no reducing agent, ambient air (partially oxidizing)
Method: Following our reported optimized protocol, the binding profile of lectins were investigated using evanescent-field fluorescence-assisted microarray technology to directly monitor the interaction without the wash and dry-up process and rapid exchange of protein solution to evaluate concentration dependence, 0.10–32.0 µg/mL protein. The AO/PC-copolymer microarray slides were deprotected using 2N HCl treatment overnight at rt, rinsed with MilliQ H2O, and dried by centrifugation. Then, test compounds were robotically printed using Arduino-based CNC machine handcrafted robot in quadruplets at two concentrations (20 and 200 µM) in 25 mM AcOH-Pyr (pH 5.0), 0.0025% (w/v) Triton X-100 under constant condition (temperature: 20–25 °C and humidity: 35–45 RH). A 25 µg/mL Cyanin3-keto-BSA (Cy3-keto-BSA) was also printed in the slide as grid. Subsequently, the slide was incubated at 80 °C for 1 h to complete the oxime bond formation. Washed once with Milli-Q H2O and dried by centrifugation at 2,000 rpm for 2 min.
A silicon rubber sheet with six chambers was attached to the printed slide. Next, slide was pretreated with reaction buffer {Phosphate-Buffered Saline solution (PBS, 1X) [10 mM Na2HPO4, 1.8 mM KH2PO4, 2.7 mM KCl, 137 mM NaCl] pH7.4 containing 0.05% (v/v) Tween-20} for 15 min and dried by centrifugation. The PBS (with or without 10 mM DTT) solutions of galectin were prepared and maintained at a cold ice bath before use. Thereafter, a cover glass was set on each chamber and 12 µL of 0.10 µg/mL lectin solution in reaction buffer was added through the gap of the slide and cover. After 1 h of incubation with the lectin solution at rt in a humidified chamber, the slide was rinsed with washing buffer (reaction buffer with containing 0.05% (v/v) Tween-20) and fluorescence intensity was measured with GlycoStation System. To determine whether additional interactions will be detected at higher lectin concentrations, the reaction buffer solution was carefully removed and replaced with the next lectin test concentration, incubated for 5 min at rt, washed with reaction buffer and then fluorescence intensity was obtained. This step was repeated until all the chosen test concentrations were completed (0.32-, 1.00-, 3.20-, 10.0-, and 32.0 µg/mL).
Images of slides were captured in the presence of reaction buffer. The fluorescexcelence intensities obtained were analyzed using ArrayVision 8.0 (GE Healthcare). For each spot, background correction was applied to get the net intensity, and the average relative fluorescence unit (RFU) was plotted using Microsoft Excel for Microsoft 365. The lectin specificity was identified from high and low RFU values, the error bars being the standard deviation.

Gal-4 = assay: Glycopeptide microarray lectin binding assay, Gal-4; design: species or system human; settings: compounds immobilised at 20 and/or 200 μM; Gal-4 0.10-32.0 µg/mL, PBS pH 7.4, no reducing agent
Method: as §1, §2, §3

[2] = tested on: laminin-111, -121, -211, and -221 with unlabeled Gal-1; assay: Laminin–Gal-1 binding assay (trans-bridging on microarray); design: species or system human; settings: 200 μM immobilised compounds; 0.10-32.0 µg/mL Cy3-laminin–unlabeled Gal-1, 32.0 µg/mL extended 30 min
Method: A 12 µL of premixed Cy3-labeled human recombinant laminin (BroadPharm and Biolamina, respectively) and unlabeled-Gal-1 with final concentration of 0.10 µg/mL was added to the printed test compounds. After 1 h of incubation with the laminin-galectin solution at rt in a humidified chamber, the slide was rinsed with washing buffer and fluorescence intensity was measured with GlycoStation System. To determine whether additional interactions will be detected at higher laminin-Gal-1 concentrations, the reaction buffer solution was carefully removed and replaced with the next test concentration, incubated for 5 min at rt, washed with reaction buffer and then fluorescence intensity was obtained. This step was repeated until all the chosen test concentrations were completed (0.32-, 1.00-, 3.20-, 10.0-, and 32.0 µg/mL). For weak interaction, incubation with 32.0 µg/mL of laminin-Gal-1 solution was extended for 30 min. Slide images were captured and analyzed as described above.

Gal-3 [3] = assay: Glycopeptide microarray lectin binding assay, Gal-3; design: species or system human; settings: compounds immobilised at 20 and/or 200 μM; Gal-3 0.10-32.0 µg/mL, PBS pH 7.4, no reducing agent
Method: as §1, §2, §3

Gal-1, Gal-4, and Gal-9 = assay: Microarray inhibition experiment (methyl-Lac, cellobiose, maltose, acetylated peptide 4); type: binding, human; settings: for Effect of soluble inhibitor on galectin binding to immobilised glycopeptides: 10 µg/mL galectin, sugars 2.00 µM to 200 mM, acetylated peptide 4 100 µM to 5.00 mM; for Gal-1 interaction with immobilised compound upon addition of methyl-Lac: Gal-1, Fig. 5b, 2.00 µM to 200 mM methyl-Lac
Method: After 30 min of incubation with the galectin-inhibitor solution at rt in a humidified chamber, the slide was rinsed with washing buffer and fluorescence intensity was measured with GlycoStation System. […] Slide images were captured and analyzed as described above.

Gal-1, -3, -4, and -9 = assay: Glycopeptide microarray, statements for the galectin test panel as a whole; type: binding, human; settings: compounds immobilised at 20 and/or 200 μM; galectins 0.10-32.0 µg/mL, PBS pH 7.4, no reducing agent
Method: as §1, §2, §3

Gal-3 [4] = settings: read-out: Kd of interaction with Gal-3; cited from earlier work
Text: The glycan-CBP interactions are influenced by not only the type of glycan but also the spatial orientation, carrier scaffold, accessibility, density, and spacing of sugar moieties along the glycoconjugate, to obtain optimum fit within the binding pocket of the receptors[37],[40],[44].

Gal-1 [5] = assay: 1H-15N HSQC NMR chemical shift perturbation of 15N-labeled Gal-1; type: binding, human; settings: tested concentrations, 0.05 up to 64 equivalents of ligand; 100 µM Gal-1, pH 6.9, 10 mM DTT
Method: ^15N Gal-1 was expressed in Escherichia coli cells BL21(DE3) from pET-GST/TEV-LGVLFQGP-hLGALS1 vector (VectorBuilder, Japan). The component cells were transformed with an expression vector utilizing the heat shock method. After one night of incubation on LB Agar plate (containing 100 μg/mL ampicillin), a colony harboring the expression construct was selected and then inoculated unto 5 mL Luria Broth (LB) with antibiotic overnight at 37 °C with shaking. The bacterial pellet was then resuspended to a fresh 500 mL M9-labeled (^15N-NH4Cl as nitrogen source) medium containing ampicillin. After that, culture was grown at 37 °C for at least 4 h until OD600 = 0.6–1.2. The cells were then induced with 0.5 mM isopropyl-β-D-1-thiogalactopyranoside (IPTG) overnight at 25 °C. Bacteria expressing ^15N Gal-1 was lysed with a sonicator (for 5 min, 25% duty cycle. 5 output control) in buffer containing 50 mM PBS, pH 7.4, 150 mM NaCl, 2 mM DTT. […] Lectin-binding activity was analyzed by 15N-HQSC with methyl-Lac. […]
The ^15N-labeled Gal-1 was prepared at 100 µM concentration in 20 mM potassium phosphate buffer at pH 6.9, 50 µM EDTA and 10 mM DTT, made up using H2O/D2O (95:5%). […] Raw data were converted using TopSpin 4.1.3 and were analyzed using NMRFAM-Sparky[71]. […] The perturbation pattern of the Gal-1 (PDB ID: 1GZW) was analyzed and visualized by PyMOL 2.5.0 (http://www.pymol.org).

laminins = settings: basal lamina; read-out: Kd of Gal-1 binding to poly-LacNAc structures of laminins; cited from earlier work
Text: In the basal lamina, Gal-1 binds to the poly-LacNAc structures of laminins (Kd≈10^−6 M), to maintain glycan recognizing function of Gal-1 in the ECM[61]. During muscle repair, Gal-1 binds directly to laminin and α7β1 integrin modulating the late myoblast fusion. In addition, Gal-1 can dissociate from laminin and cross-link olfactory neurons, forming ne ...

5-oxo-hexanoyl-TRGAIIQTPTLGPIQPTRV -NH2 [compound 4, unglycosylated α-DG peptide backbone (…) with ketone linker]
Gal-9 binding, microarray signal intensity (RFU) (Gal-9): interact | Gal-1 binding, microarray signal intensity (RFU) (Gal-1 [1]): binding was observed; also recorded: interact | Gal-4 binding, microarray signal intensity (RFU) (Gal-4): interact | Gal-1 trans-bridging of Cy3-laminin to immobilised compound, signal intensity [2]: could anchor laminins

5-oxo-hexanoyl-TRGAIIQTPTLGPIQPTRV -NH2 [compound 28, α-DG glycopeptide with heterogeneous glycans: sialyl-LacNAc core M1 and LacNAc core M1]
Gal-1 binding, microarray signal intensity (RFU) (Gal-1 [1]): bound; also recorded: diminished Gal-1 binding | Gal-4 binding, microarray signal intensity (RFU) (Gal-4): significant reduction in the affinity | Gal-1 trans-bridging of Cy3-laminin to immobilised compound, signal intensity [2]: decrease in the trans-bridging activity

5-oxo-hexanoyl-TRGAIIQTPTLGPIQPTRV -NH2 [compound 15, bis-LacNAc core M1 α-DG glycopeptide, consecutive glycosylation sites]
Gal-3 binding, microarray signal intensity (RFU) (Gal-3 [3]): stronger affinity

O=C[C@H](O)[C@@H](O)[C@H](O[C@@H]1O[C@H](CO)[C@@H](O)[C@H](O)[C@H]1O)[C@H](O)CO [cellobiose, reference compound]
Effect of soluble inhibitor on galectin binding to immobilised glycopeptides (Gal-1, Gal-4, and Gal-9): minimal effect on the binding

5-oxo-hexanoyl-TRGAIIQTPTLGPIQPTRV -NH2 [compound 26, α-DG glycopeptide with heterogeneous glycans: LacNAc core M1 and core M1]
Galectin interaction with immobilised compound in the presence of methyl-Lac (Gal-1, Gal-4, and Gal-9; 200 μM immobilised compounds, 10 µg/mL galectin with 2.00 µM to 200 mM methyl-Lac): significantly reduced interaction | Gal-1 binding, microarray signal intensity (RFU) (Gal-1 [1]): bound | Binding of the tested galectins (panel statement), microarray signal intensity (Gal-1, -3, -4, and -9): high interaction

Galβ1,3GalNAcα1-O-Ser/Thr [TF antigen]
Kd (Gal-3 [4]): 245 µM

CO[C@@H]1O[C@H](CO)[C@@H](O[C@@H]2O[C@H](CO)[C@H](O)[C@H](O)[C@H]2O)[C@H](O)[C@H]1O [methyl-Lac, methyl-β-lactoside, reference compound]
Effect of soluble inhibitor on galectin binding to immobilised glycopeptides (Gal-1, Gal-4, and Gal-9): significantly reduced interaction | Chemical shift perturbation of 15N Gal-1 over the titration (Gal-1 [5]): shifted the ^1H-^15N HSQC signals corresponding to the residues on S3–L6 regions

5-oxo-hexanoyl-TRGAIIQTPTLGPIQPTRV -NH2 [compound 11, tris-core M1 α-DG glycopeptide]
Gal-1 binding, microarray signal intensity (RFU) (Gal-1 [1]): notable decrease in binding interaction

Gal-1: prototype homodimeric human galectin
Kd (laminins): ~1 µM

5-oxo-hexanoyl-TRGAIIQTPTLGPIQPTRV -NH2 [compound 6, mono-core M1 α-DG glycopeptide]
Gal-1 interaction with immobilised compound upon addition of methyl-Lac (Gal-1, Gal-4, and Gal-9): enhanced interaction | Gal-1 binding, microarray signal intensity (RFU) (Gal-1 [1]): did not show significant interaction | Gal-1 trans-bridging of Cy3-laminin to immobilised compound, signal intensity [2]: remarkable signal intensities

32: acetylated N-terminus unglycosylated α-DG peptide corresponding to 4 (Ac-TRGAIIQTPTLGPIQPTRV) [compound 32]
Effect of soluble inhibitor on galectin binding to immobilised glycopeptides (Gal-1, Gal-4, and Gal-9): minimal effect on the binding | Chemical shift perturbation of 15N Gal-1 over the titration (Gal-1 [5]): failed to induce any significant deviation in the chemical shift

5-oxo-hexanoyl-TRGAIIQTPTLGPIQPTRV -NH2 [compound 18, tris-LacNAc terminated α-DG glycopeptide]
Gal-3 binding, microarray signal intensity (RFU) (Gal-3 [3]): did not result in higher intensity | Binding of the tested galectins (panel statement), microarray signal intensity (Gal-1, -3, -4, and -9): lesser interaction

5-oxo-hexanoyl-TRGAIIQTPTLGPIQPTRV -NH2 [compound 5, mono-core M1 α-DG glycopeptide]
Gal-1 interaction with immobilised compound upon addition of methyl-Lac (Gal-1, Gal-4, and Gal-9): enhanced interaction | Gal-1 binding, microarray signal intensity (RFU) (Gal-1 [1]): did not show significant interaction | Gal-1 trans-bridging of Cy3-laminin to immobilised compound, signal intensity [2]: remarkable signal intensities

From article PMC9588787, “Exploring the In situ pairing of human galectins toward synthetic O-mannosylated core M1 glycopeptides of α-dystroglycan” (Scientific Reports, 2022)
